Measurements as given in PubChem BioAssay (NCI).
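Method: 48-hour compound exposure of cells in 96-well plates, five concentrations, linear interpolation of endpoints. TGI is the concentration that stops growth completely.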

Legend:
Test in all cases: growth of human tumour cells (NCI), 48 h
[1] = tested on: A498 renal
[2] = tested on: OVCAR-4 ovarian
[3] = tested on: COLO 205 colon
[4] = tested on: A549 NSCLC
[5] = tested on: NCI-H522 lung
[6] = tested on: KM12 colon
[7] = tested on: CAKI-1 renal
[8] = tested on: HCT-116 colon
[9] = tested on: CCRF-CEM leukemia
[10] = tested on: MOLT-4 leukemia
[11] = tested on: HCC-2998 colon
[12] = tested on: SK-MEL-5 melanoma
[13] = tested on: EKVX NSCLC
[14] = tested on: SNB-75 CNS
[15] = tested on: M19-MEL melanoma
[16] = tested on: K-562 leukemia
[17] = tested on: HOP-18 NSCLC
[18] = tested on: SK-MEL-2 melanoma
[19] = tested on: SW-620 colon
[20] = tested on: SF-268 CNS
[21] = tested on: OVCAR-5 ovarian
[22] = tested on: DMS 114 small cell lung
[23] = tested on: NCI-H460 lung
[24] = tested on: SNB-78 CNS
[25] = tested on: SF-295 CNS
[26] = tested on: HCT-15 colon
[27] = tested on: HL-60(TB) leukemia
[28] = tested on: SK-OV-3 ovarian
[29] = tested on: M14 melanoma
[30] = tested on: RXF 393 renal
[31] = tested on: 786-0 renal
[32] = tested on: MALME-3M melanoma
[33] = tested on: ACHN renal
[34] = tested on: HT29 colon
[35] = tested on: HOP-62 NSCLC
[36] = tested on: KM20L2 colon
[37] = tested on: SF-539 CNS
[38] = tested on: UACC-62 melanoma
[39] = tested on: OVCAR-8 ovarian
[40] = tested on: IGROV1 ovarian
[41] = tested on: OVCAR-3 ovarian
[42] = tested on: U251 CNS
[43] = tested on: RPMI-8226 leukemia
[44] = tested on: NCI-H23 lung
[45] = tested on: SN12C renal
[46] = tested on: NCI-H226 lung
[47] = tested on: RXF-631 renal
[48] = tested on: HOP-92 NSCLC
[49] = tested on: UO-31 renal
[50] = tested on: LOX IMVI melanoma
[51] = tested on: SK-MEL-28 melanoma
[52] = tested on: TK-10 renal
[53] = tested on: DLD-1 colon
[54] = tested on: SR leukemia
[55] = tested on: UACC-257 melanoma
[56] = tested on: LXFL 529 NSCLC
[57] = tested on: DMS 273 small cell lung

Measured: TGI

C[N+](C)(C)CC1CCCC(C[N+](C)(C)C)C1O (configuration not stated)
> 100 µM: all assays above
